Reference: patent US20260035360A1, “INHIBITORS OF MYC AND USES THEREOF” (Northwestern University, priority 2022, published 2026)

Assays:
[1] = test system: MycCaP;Pten-KO cells; assay: Tumor growth inhibition, MycCaP;Pten-KO subcutaneous allograft in male FVB/N mice; type: in vivo; settings: after 14 d; for Efficacy MycCaP;Pten-ko (TGI @ 100 mg/kg/d po): male FVB/N mice, Table 3; for TGI: QD, Table 7
Experimental: (§1) Table 3. Biological data of selected compounds. […] Tumor growth inhibition (TGI) was determined after 14 d.
Table 7. Tumor Growth Inhibition data. […] Tumor growth inhibition (TOD was determined after 14 d.

[2] = Toxicity (weight loss) in tumor-bearing mice; type: in vivo; settings: weight loss class
Experimental: as §1

[3] = test system: PC12 cells; assay: PC12 cell viability, CellTitreGlo Assay, 72 hrs; type: cell-based; settings: for IC50: Rattus norvegicus, PC-12
Experimental: (§2) Table 2. Biological data of selected compounds. For IC50 determination. PC3 and PC12 cells were treated with increasing concentrations of the indicated compounds for 72 hrs and cell viability assessed using CellTitreGlo Assay (Promega). For MYC and ATF4 protein level determination. PC3 cells were treated with the indicated compounds for 24 hr sand cell lysates processed for western blot with MYC and ATF4 antibodies using Actin as a control. Quantification analyses were performed by Biorad ChemiDoc Imager and Bio-Rad Image Lab software.

[4] = test system: PC3 cells; assay: PC3 cell viability, CellTitreGlo Assay, 72 hrs; type: cell-based; settings: Homo sapiens, PC-3
Experimental: as §2

[5] = female, mouse, in vivo, po, 1 mg/kg
Experimental: (§3) PK: Plasma levels of compounds were determined after 1 mg/kg dosing PO in female BALB/C mice.
(§4) Plasma levels of compounds were determined after 1 mg/kg dosing PO in female BALB/C mice.

[6] = molecular target: T1, MYC (Homo sapiens, UniProt P01106); assay: MYC protein level in PC3 cells by western blot, 24 hr; type: cell-based; settings: PC-3, 24 h, PC3, 24 h, Actin control, read-out: Relative MYC protein at 10 μM (%, PC3 24 h)
T1 construct: endogenous in cells; host or cells: PC3 cells
Experimental: as §2

[7] = test system: ATF4; assay: ATF4 protein level in PC3 cells by western blot, 24 hr; type: cell-based; settings: Homo sapiens, PC-3, PC3, 24 h, Actin control, read-out: Relative ATF4 protein at 10 μM (fold change, PC3 24 h)
Experimental: as §2

[8] = Plasma pharmacokinetics after 1 mg/kg PO in female mice; settings: mouse; for half-life: female mice
Experimental: as §3, §4

T1 sequence (P01106 whole entry): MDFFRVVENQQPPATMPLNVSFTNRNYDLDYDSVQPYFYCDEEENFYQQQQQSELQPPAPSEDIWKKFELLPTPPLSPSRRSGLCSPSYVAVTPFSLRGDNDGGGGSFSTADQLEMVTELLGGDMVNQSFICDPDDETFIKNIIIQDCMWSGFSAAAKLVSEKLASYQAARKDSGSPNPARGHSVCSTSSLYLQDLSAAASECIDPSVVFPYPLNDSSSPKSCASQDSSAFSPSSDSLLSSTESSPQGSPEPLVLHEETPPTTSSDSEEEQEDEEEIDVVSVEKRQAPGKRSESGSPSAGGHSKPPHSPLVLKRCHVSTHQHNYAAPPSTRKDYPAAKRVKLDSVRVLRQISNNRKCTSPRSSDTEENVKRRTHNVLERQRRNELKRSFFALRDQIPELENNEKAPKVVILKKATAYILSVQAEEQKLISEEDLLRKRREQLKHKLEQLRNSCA

Structure (SMILES) | Efficacy MycCaP;Pten-ko (TGI @ 100 mg/kg/d po) [1] | Toxicity @ 100 mg/kg/d [2] | IC50 [3] | IC50 [4] | AUMC0-t [5] | remaining activity at 10 µM [6] | fold induction at 10 µM [7] | AUC(0-t) [8] | Cmax [8] | Tmax [8] | other results
Cn1nc(C(F)(F)F)cc1-c1ccc(OCc2ccc(Cl)cc2)c(-c2ccc(Cl)c(C(F)(F)F)c2)c1O [MYCi975, reference compound] | 50 | − (−, 0-5% weight loss) | > 16 µM | 2.9 ± 0.5 µM | – | – | – | – | – | – | –
Cn1nc(C(F)(F)F)c(Cl)c1-c1cc(Cl)c(COc2ccc(Cl)cc2)c(-c2ccc(Cl)c(C(F)(F)F)c2)c1O [NUCC-0227037] | 80 | – | 11.1 µM | 0.96 µM | 53530 h*h*ng/mL | 33.6% | 15.1 | 4000 ng·h/mL | 202 ng/mL | 4 h | TGI ([1]; 10 mg/kg p.o.): 43.99%; TGI ([1]; 30 mg/kg p.o.): 57.24%; TGI ([1]; 100 mg/kg p.o.): 81.48%; AUMC0-∞ [5]: 66373 h*h*ng/mL; AUC(0-inf) [8]: 4200 ng·h/mL; MRT inf [8]: 15.8 h; half-life ([8]; T1/2, Table 6, PO 1 mg/kg): 10.7 h; half-life ([8]; T1/2—range*, Table 6, PO 1 mg/kg): 8 to 48 h
Cn1nc(C(F)(F)F)cc1-c1c(F)cc(OCc2ccc(Cl)cc2)c(-c2ccc(Cl)c(C(F)(F)F)c2)c1O [NUCC-0226545] | – | – | 10.8 µM | 2.2 µM | 36107 h*h*ng/mL | 19.5% | 4.7 | 4760 ng·h/mL | 472 ng/mL | 4 h | MRT inf [8]: 7.57 h; half-life ([8]; T1/2, Table 4, PO 1 mg/kg): 4.3 h; half-life ([8]; T1/2—range*, Table 4, PO 1 mg/kg): 8 to 24 h
Cn1nc(C(F)(F)F)cc1-c1ccc(COc2ccc(Cl)cc2)c(-c2ccc(Cl)c(C(F)(F)F)c2)c1O [NUCC-0202416] | – | – | – | 4.71 µM | 88636 h*h*ng/mL | 38.9% | 9.3 | 5760 ng·h/mL | 244 ng/mL | 8 h | PC12 IC50 [3]: inactive
Cn1nc(C(F)(F)F)cc1-c1cc(Cl)c(COc2ccc(Cl)cc2)c(-c2ccc(Cl)c(C(F)(F)F)c2)c1O [NUCC-0226605] | 90 | ++ (++, 15-20% weight loss) | 10.5 µM | 1 µM | 49995 h*h*ng/mL | 34.7 ± 3.2% | 10.3 ± 1.5 | 4830 ng·h/mL | 274 ng/mL | 8 h | TGI ([1]; 10 mg/kg p.o.): 56.29%; TGI ([1]; 30 mg/kg p.o.): 65.67%; TGI ([1]; 100 mg/kg p.o.): 92.51%
Cn1nc(C(F)(F)F)cc1-c1cc(Cl)c(Oc2ccc(Cl)cc2)c(-c2ccc(Cl)c(C(F)(F)F)c2)c1O [NUCC-0227245] | – | +++ (+++, >20% weight loss or death) | 3.81 µM | 0.49 µM | – | 37.1 ± 1% | 20.3 ± 3.7 | – | – | – | –
Cn1nc(C(F)(F)F)c(Cl)c1-c1ccc(COc2ccc(Cl)cc2)c(-c2ccc(Cl)c(C(F)(F)F)c2)c1O [NUCC-0226606] | 75 | – | 16.6 µM | 2.23 µM | 177148 h*h*ng/mL | 38.2 ± 3.9% | 9.7 ± 1.2 | 15200 ng·h/mL | 841 ng/mL | 12 h | TGI ([1]; 10 mg/kg p.o.): 43.1%; TGI ([1]; 30 mg/kg p.o.): 56.4%; TGI ([1]; 100 mg/kg p.o.): 74.6%
Cn1nc(C(F)(F)F)cc1-c1ccc(N(CC23CC4CC(CC(C4)C2)C3)C(=O)c2ccc(Cl)c(C(F)(F)F)c2)cc1O [NUCC-0226225] | – | – | 14.5 µM | 2.1 µM | – | 28.4% | 15.2 | – | – | – | –
Cn1nc(C(F)(F)F)cc1-c1cc(C(F)(F)F)c(COc2ccc(Cl)cc2)c(-c2ccc(Cl)c(C(F)(F)F)c2)c1O [NUCC-0227244] | – | ++ (++, 15-20% weight loss) | 4.55 µM | 0.57 µM | – | 39.5% | 22.8 | – | – | – | –
CN(C)c1c(Cl)cc(-c2cc(C(F)(F)F)nn2C)c(O)c1-c1ccc(Cl)c(C(F)(F)F)c1 [NUCC-0226530] | – | – | 9.4 µM | 12 µM | – | 35.5% | 3 | – | – | – | –
C[C@@H](C(=O)N[C@H](C(=O)N1C[C@@H](NC(=O)COCCOCCNC(=O)CCOCCCN(C(=O)c2ccc(Cl)c(C(F)(F)F)c2)c2ccc(-c3cc(C(F)(F)F)nn3C)c(O)c2)C[C@H]1C(=O)N[C@@H]1CCCc2ccccc21)C1CCCCC1)N(C)C(=O)OC(C)(C)C [NUCC-0226299] | – | – | 11.3 µM | 3.8 µM | – | 42.1% | 5.4 | – | – | – | –
Cn1nc(C(F)(F)F)cc1-c1ccc(-c2ccc(Cl)cc2)c(OCc2ccc(Cl)c(C(F)(F)F)c2)c1O [NUCC-0226652] | – | – | 16.6 µM | 4.42 µM | – | 72.3% | 5.2 | – | – | – | –
